Here are results for two compounds from patent US20100179209A1, “Pactimibe medicaments for preventing/treating a disease due to sebaceous gland dysfunction in humans or animals” (GALDERMA RESEARCH & DEVELOPMENT, priority 2007, published 2010).

pIC50: −log10 of the molar value.

The nature of data set [1]: Study of the properties of pactimibe: toxicity.
The subject of data set [2] is sebaceous glands. As to the kind of experiment: Study of the properties of pactimibe: sebum production by the sebaceous glands.
In data set [3] the test system is ACAT/SOAT enzyme. As to the kind of experiment: Measurement of ACAT/SOAT activity (NBD-cholesterol fluorescence assay in HepG2 cells). The format is cell-based. Conditions: NBD-cholesterol 1 μg/ml, incubation 6 h at 37° C., read-out: inhibition of cholesterol ester synthesis, IC50. The source says:
Measurement of ACAT/SOAT Activity:
The objective of this test is to visualize the activity of the ACAT/SOAT enzyme on the synthesis of cholesterol esters.
The test is based on the following publication: “Identification of ACAT1- and ACAT2-specific inhibitors using a novel, cell based fluorescence assay: individual ACAT uniqueness”, J. Lipid Res., (2004) vol. 45, pages 378-386.
The principle of this test is based on the use of NBD-cholesterol, which is a cholesterol analogue of which the fluorescence is dependent on its environment. When said analogue is in a polar environment, it is weakly fluorescent, whereas in a non-polar environment, it is strongly fluorescent. Free NBD-cholesterol is localized in the cell membranes and is weakly fluorescent in this polar environment. When NBD-cholesterol is esterified by ACAT, the NBD-cholesterol ester is localized in non-polar lipid droplets and is therefore strongly fluorescent.
HepG2 cells are incubated in the presence of NBD-cholesterol (1 μg/ml) and of the test product in transparent-bottomed black 96-well plates at a rate of 30 000 cells per well. […] After the addition of 50 μl of lysis buffer (10 mM NaPO4, 1% Igepal), the plates are shaken for 5 min and read by fluorescence (excitation 490 nm, emission 540 nm) on the Fusion instrument (Perkin Elmer).

The test system of data set [4] is sebum production. The conditions noted are these: administration of isotretinoin, current treatment; cited from earlier work.

`CCCCCCCCN1CCc2c(C)c(CC(=O)O)c(C)c(NC(=O)C(C)(C)C)c21` [pactimibe, N-(1-octyl-5-carboxymethyl-4,6-dimethylindolin-7-yl)-2,2-dimethylpropanamide]: in data set [1], the toxicity entry is given as “not toxic”. Moreover, in data set [2], the “sebum production by the sebaceous glands” value is on record as “reduce sebum production”. For the same compound, in data set [3], the pIC50 was 7.30.

Take `CC1=C(/C=C/C(C)=C/C=C/C(C)=C\C(=O)O)C(C)(C)CCC1` [isotretinoin]: in data set [4], the “decrease of sebum production” value is on record as around 90% and the side effects result is listed as “considerable side effects”.

As usually defined, the pIC50 is the negative decadic logarithm of the IC50, by convention in mol/L.
